PubChem BioAssay (NCI)
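Values below derive from 48-hour exposures of cells grown in 96-well plates, with endpoints linearly interpolated between the two concentrations bracketing the appropriate inhibition level. The concentration for 50% growth inhibition is given as GI50. TGI: concentration producing complete growth inhibition.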

Legend:
Test in all cases: DTP human tumour cell line panel, 48 h
[1] = tested on: UACC-62 melanoma
[2] = tested on: COLO 205 colon
[3] = tested on: CAKI-1 renal
[4] = tested on: SN12C renal
[5] = tested on: RXF 393 renal
[6] = tested on: MALME-3M melanoma
[7] = tested on: NCI-H23 lung
[8] = tested on: HS 578T breast
[9] = tested on: NCI-H522 lung
[10] = tested on: A498 renal

| SMILES | GI50 [1] | TGI [1] | GI50 [2] | TGI [2] | GI50 [3] | TGI [3] | GI50 [4] | TGI [4] | GI50 [5] | TGI [5] | GI50 [6] | TGI [6] | GI50 [7] | TGI [7] | GI50 [8] | TGI [8] | GI50 [9] | TGI [9] | GI50 [10] | TGI [10] |
| --- | --- | --- | --- | --- | --- | --- | --- | --- | --- | --- | --- | --- | --- | --- | --- | --- | --- | --- | --- | --- |
| NS(=O)(=O)c1ccc(-c2cc3ccncc3cc2OCc2ccccc2)cc1 | > 23.7 µM | > 25 µM | > 21.2 µM | > 25 µM | > 23.8 µM | > 25 µM | 24.9 µM | > 25 µM | 7.16 µM | > 25 µM | 22.8 µM | > 25 µM | > 25 µM | > 25 µM | 7.04 µM | > 25 µM | > 17 µM | > 25 µM | 5.65 µM | > 25 µM |
| Cc1ccc(/C(C#N)=C/c2cccc([N+](=O)[O-])c2)cc1 | – | > 100 µM | – | > 100 µM | – | > 100 µM | – | > 100 µM | – | 41 µM | – | > 100 µM | – | > 100 µM | – | 65 µM | – | > 100 µM | – | > 100 µM |
| Oc1ccc(C(c2ccc(O)cc2)c2ccc(Br)cn2)cc1 | 3.71 µM | 15.5 µM | 0.308 µM | 3.44 µM | 20.1 µM | > 100 µM | 0.325 µM | 3.82 µM | 0.217 µM | 0.532 µM | 17.7 µM | 59.8 µM | 0.267 µM | 0.772 µM | 0.242 µM | 0.593 µM | 1.43 µM | 46.6 µM | 0.6 µM | 16.1 µM |
| Cc1cc[n+]2c(c1)-c1cc(C)cc[n+]1CC2 | – | > 100 µM | – | > 86.1 µM | – | > 100 µM | – | > 100 µM | – | > 100 µM | – | > 100 µM | – | > 100 µM | – | > 100 µM | – | > 92.9 µM | – | > 100 µM |
